In paper PMC10114980, “Triple targeting of mutant EGFR^L858R/T790M, COX-2, and 15-LOX: design and synthesis of novel quinazolinone tethered phenyl urea derivatives for anti-inflammatory and anticancer evaluation” (Journal of Enzyme Inhibition and Medicinal Chemistry, 2023):
Where “and” joins values, the source holds several entries; their conditions need not be identical. Identical values can stand only once.

Tests used:
OVCAR-5 = experiment: NCI single dose screen, OVCAR-5; format: cell-based; settings: Homo sapiens; OVCAR-5, ovarian cancer; single dose 10^−5 M; read-out: growth inhibition percentage
Description: (§1) Screening of the anticancer activity of the newly synthesised compounds (6a, 6c, 6d, 6e, 6j, 6l, 6m, 6n, 6o, and 6p) was performed by the US National Cancer Institute (NCI) using 60 different human tumour cell lines in accordance with standard procedures formerly reported.
(§2) In vitro anticancer screening was carried out for the selected compounds at a single dose (10^−5 M) against 60 different human tumour cell lines of nine different cancer cell types: leukaemia, lung, colon, CNS, melanoma, ovarian, renal, prostate, and breast cancers.

RXF 393 = experiment: NCI single dose screen, RXF 393; format: cell-based; settings: Homo sapiens; RXF 393, renal cancer; single dose 10^−5 M; read-out: growth inhibition percentage
Description: as §1, §2

NCI-H322M = experiment: NCI single dose screen, NCI-H322M; format: cell-based; settings: Homo sapiens, non-small cell lung cancer, single dose 10^−5 M, read-out: growth inhibition percentage
Description: as §1, §2

[1] = system: LPS-induced IL-6 production in RAW 264.7 cells; experiment: IL-6 production in LPS-activated RAW 264.7 cells (ELISA); format: cell-based; settings: LPS-activated RAW 264.7 cells treated with 25 µM of the compound
A498 = experiment: NCI single dose screen, A498; format: cell-based; settings: Homo sapiens; A498, renal cancer; single dose 10^−5 M; read-out: growth inhibition percentage
Description: as §1, §2

PC-3 = experiment: NCI single dose screen, PC-3; format: cell-based; settings: Homo sapiens; PC-3, prostate cancer; single dose 10^−5 M; read-out: growth inhibition percentage
Description: as §1, §2

SNB-19 = experiment: NCI single dose screen, SNB-19; format: cell-based; settings: Homo sapiens; SNB-19, CNS cancer; single dose 10^−5 M; read-out: growth inhibition percentage
Description: as §1, §2

RPMI-8226 = experiment: NCI single dose screen, RPMI-8226; format: cell-based; settings: Homo sapiens; RPMI-8226, leukaemia; single dose 10^−5 M; read-out: growth inhibition percentage
Description: as §1, §2

T-47D = experiment: NCI single dose screen, T-47D; format: cell-based; settings: Homo sapiens, T47D, breast cancer, single dose 10^−5 M, read-out: growth inhibition percentage
Description: as §1, §2

SN12C = experiment: NCI single dose screen, SN12C; format: cell-based; settings: Homo sapiens, renal cancer, single dose 10^−5 M, read-out: growth inhibition percentage
Description: as §1, §2

NCI-H460 = experiment: NCI single dose screen, NCI-H460; format: cell-based; settings: Homo sapiens; NCI-H460, non-small cell lung cancer; single dose 10^−5 M; read-out: growth inhibition percentage
Description: as §1, §2

HS 578T = experiment: NCI single dose screen, HS 578T; format: cell-based; settings: Homo sapiens, breast cancer, single dose 10^−5 M, read-out: growth inhibition percentage
Description: as §1, §2

MDA-MB-231/ATCC = experiment: NCI single dose screen, MDA-MB-231/ATCC; format: cell-based; settings: Homo sapiens, breast cancer, single dose 10^−5 M, read-out: growth inhibition percentage
Description: as §1, §2

UO-31 = experiment: NCI single dose screen, UO-31; format: cell-based; settings: Homo sapiens; UO-31, renal cancer; single dose 10^−5 M; read-out: growth inhibition percentage
Description: as §1, §2

786-0 = experiment: NCI single dose screen, 786-0; format: cell-based; settings: Homo sapiens; 786-0, renal cancer; single dose 10^−5 M; read-out: growth inhibition percentage
Description: as §1, §2

SR = experiment: NCI single dose screen, SR; format: cell-based; settings: Homo sapiens, leukaemia, single dose 10^−5 M, read-out: growth inhibition percentage
Description: as §1, §2

SF-539 = experiment: NCI single dose screen, SF-539; format: cell-based; settings: Homo sapiens, read-out: growth inhibition percentage
Description: as §1, §2

ovine COX-1 = molecular target: T1, ovine COX-1 (Ovis aries, UniProt P05979); experiment: In vitro COX-1 inhibition assay kit (Cayman); format: biochemical; settings: mean ± SEM, n = 3 replicates
T1 sequence (P05979 25-600): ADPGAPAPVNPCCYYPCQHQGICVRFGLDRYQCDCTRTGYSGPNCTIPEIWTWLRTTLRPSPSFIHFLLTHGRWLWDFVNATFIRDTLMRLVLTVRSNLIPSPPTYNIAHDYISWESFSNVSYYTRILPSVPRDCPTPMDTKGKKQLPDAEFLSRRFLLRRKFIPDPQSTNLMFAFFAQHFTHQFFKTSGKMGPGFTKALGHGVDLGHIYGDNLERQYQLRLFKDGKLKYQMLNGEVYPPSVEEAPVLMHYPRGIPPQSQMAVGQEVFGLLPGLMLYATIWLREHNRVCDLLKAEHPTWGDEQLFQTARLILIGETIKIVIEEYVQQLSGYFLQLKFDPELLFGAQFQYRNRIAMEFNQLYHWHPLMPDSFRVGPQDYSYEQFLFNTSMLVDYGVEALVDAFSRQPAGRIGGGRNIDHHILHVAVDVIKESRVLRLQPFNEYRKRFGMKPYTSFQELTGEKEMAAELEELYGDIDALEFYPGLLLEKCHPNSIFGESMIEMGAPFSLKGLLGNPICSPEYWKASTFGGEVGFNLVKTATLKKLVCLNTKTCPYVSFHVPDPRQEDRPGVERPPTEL
Description: The half-maximal inhibitory concentration (IC50, μM) was determined, and the COX-2 selectivity index (SI) was calculated as IC50 (COX-1)/IC50 (COX-2).

SNB-75 = experiment: NCI single dose screen, SNB-75; format: cell-based; settings: Homo sapiens; SNB-75, CNS cancer; single dose 10^−5 M; read-out: growth inhibition percentage
Description: as §1, §2

KM12 = experiment: NCI single dose screen, KM12; format: cell-based; settings: Homo sapiens; KM12, colon cancer; single dose 10^−5 M; read-out: growth inhibition percentage
Description: as §1, §2

HL-60(TB) = experiment: NCI single dose screen, HL-60(TB); format: cell-based; settings: Homo sapiens, leukaemia, single dose 10^−5 M, read-out: growth inhibition percentage
Description: as §1, §2

NCI/ADR-RES = experiment: NCI single dose screen, NCI/ADR-RES; format: cell-based; settings: Homo sapiens, ovarian cancer, single dose 10^−5 M, read-out: growth inhibition percentage
Description: as §1, §2

DU-145 = experiment: NCI single dose screen, DU-145; format: cell-based; settings: Homo sapiens; DU-145, prostate cancer; single dose 10^−5 M; read-out: growth inhibition percentage
Description: as §1, §2

MOLT-4 = experiment: NCI single dose screen, MOLT-4; format: cell-based; settings: Homo sapiens; MOLT-4, leukaemia; single dose 10^−5 M; read-out: growth inhibition percentage
Description: as §1, §2

HOP-92 = experiment: NCI single dose screen, HOP-92; format: cell-based; settings: Homo sapiens; HOP-92, non-small cell lung cancer; single dose 10^−5 M; read-out: growth inhibition percentage
Description: as §1, §2

COLO 205 = experiment: NCI single dose screen, COLO 205; format: cell-based; settings: Homo sapiens; COLO 205, colon cancer; single dose 10^−5 M; read-out: growth inhibition percentage
Description: as §1, §2

SMILES	inhibition at 10 µM (OVCAR-5) [%]	inhibition at 10 µM (RXF 393) [%]	inhibition at 10 µM (NCI-H322M) [%]	IL-6 concentration [1]	inhibition at 10 µM (A498) [%]	inhibition at 10 µM (PC-3) [%]	inhibition at 10 µM (SNB-19) [%]	inhibition at 10 µM (RPMI-8226) [%]	inhibition at 10 µM (T-47D) [%]	inhibition at 10 µM (SN12C) [%]	inhibition at 10 µM (NCI-H460) [%]	inhibition at 10 µM (HS 578T) [%]	inhibition at 10 µM (MDA-MB-231/ATCC) [%]	inhibition at 10 µM (UO-31) [%]	inhibition at 10 µM (786-0) [%]	inhibition at 10 µM (SR) [%]	inhibition at 10 µM (SF-539) [%]	IC50 (ovine COX-1) [µM]	inhibition at 10 µM (SNB-75) [%]	inhibition at 10 µM (KM12) [%]	other results
COc1ccc(NC(=O)NN2C(=O)c3ccccc3N(C)C2c2ccc(OC)cc2)cc1 (stereo not drawn) [Compound 6j, 1-(4-Methoxyphenyl)-3-(2-(4-methoxyphenyl)-1-methyl-4-oxo-1,4-dihydroquinazolin-3(2H)-yl)urea]	< 10	< 10	< 10	164.6 ± 5.09 pg/mL	< 10	10.8	< 10	< 10	< 10	< 10	< 10	< 10	< 10	24.6	34.2	11.6	< 10	26.9 ± 3.03	< 10	< 10	inhibition at 10 µM (HL-60(TB)): < 10%; inhibition at 10 µM (NCI/ADR-RES): < 10%; inhibition at 10 µM (DU-145): < 10%; inhibition at 10 µM (MOLT-4): < 10%; inhibition at 10 µM (HOP-92): < 10%; inhibition at 10 µM (COLO 205): < 10%; melting point: 205 to 207 °C
CN1c2ccccc2C(=O)N(NC(=O)Nc2ccc(F)cc2)C1c1ccccc1 (stereo not drawn) [Compound 6m, 1-(4-Fluorophenyl)-3-(1-methyl-4-oxo-2-phenyl-1,4-dihydroquinazolin-3(2H)-yl)urea]	< 10	< 10	< 10	290.7 ± 5.5 pg/mL	< 10	22.1	< 10	16.1	13.9	< 10	< 10	< 10	23	40.1	12.9	< 10	< 10	12.4 ± 2.74	< 10	< 10	inhibition at 10 µM (HL-60(TB)): < 10%; inhibition at 10 µM (NCI/ADR-RES): 16.8%; inhibition at 10 µM (DU-145): < 10%; inhibition at 10 µM (MOLT-4): 23.5%; inhibition at 10 µM (HOP-92): < 10%; inhibition at 10 µM (COLO 205): < 10%; melting point: 220 to 222 °C
CN1c2ccccc2C(=O)N(NC(=O)Nc2ccc(F)cc2)C1c1ccc(F)cc1 (stereo not drawn) [Compound 6n, 1-(4-Fluorophenyl)-3-(2–(4-fluorophenyl)-1-methyl-4-oxo-1,4-dihydroquinazolin-3(2H)-yl)urea]	< 10	< 10	< 10	535.3 ± 15.25 pg/mL	< 10	38.1	< 10	33.1	11.7	< 10	< 10	19.7	29.8	57.1	< 10	14.4	10.1	10.5 ± 1.48	28.1	15.4	inhibition at 10 µM (HL-60(TB)): < 10%; inhibition at 10 µM (NCI/ADR-RES): 23.2%; inhibition at 10 µM (DU-145): < 10%; inhibition at 10 µM (MOLT-4): 43.1%; inhibition at 10 µM (HOP-92): < 10%; inhibition at 10 µM (COLO 205): < 10%; melting point: 214 to 216 °C
CN1c2ccccc2C(=O)N(NC(=O)Nc2ccc(F)cc2)C1c1ccc([N+](=O)[O-])cc1 (stereo not drawn) [Compound 6o, 1-(4-Fluorophenyl)-3–(1-methyl-2-(4-nitrophenyl)-4-oxo-1,4-dihydroquinazolin-3(2H)-yl)urea]	< 10	< 10	< 10	37.23 pg/mL and 37.23 ± 1.19 pg/mL	< 10	31	11.4	22.4	< 10	< 10	< 10	< 10	22.5	41.3	< 10	12.2	< 10	> 100	< 10	< 10	inhibition at 10 µM (HL-60(TB)): < 10%; inhibition at 10 µM (NCI/ADR-RES): < 10%; inhibition at 10 µM (DU-145): < 10%; inhibition at 10 µM (MOLT-4): 20.4%; inhibition at 10 µM (HOP-92): < 10%; inhibition at 10 µM (COLO 205): < 10%; melting point: 250 to 252 °C
COc1ccc(C2N(NC(=O)Nc3ccc(F)cc3)C(=O)c3ccccc3N2C)cc1 (stereo not drawn) [Compound 6p, 1-(4-Fluorophenyl)-3-(2–(4-methoxyphenyl)-1-methyl-4-oxo-1,4-dihydroquinazolin-3(2H)-yl)urea]	< 10	< 10	< 10	237.2 ± 3.19 pg/mL	< 10	15.2	< 10	11.2	< 10	< 10	< 10	< 10	12.6	42.6	< 10	< 10	< 10	88.5 ± 3.01	< 10	< 10	inhibition at 10 µM (HL-60(TB)): < 10%; inhibition at 10 µM (NCI/ADR-RES): < 10%; inhibition at 10 µM (DU-145): < 10%; inhibition at 10 µM (MOLT-4): 11.2%; inhibition at 10 µM (HOP-92): < 10%; inhibition at 10 µM (COLO 205): < 10%; melting point: 224 to 226 °C
